# Measurements as given in patent US8741843B2, “Compositions and methods for inducing angiogenesis” (priority 2006, dated 2014).
# Entries after “also recorded” stand apart in the source; their conditions may differ.
# Key:
# [1] = tested on: mouse ischemic hind limb; assay: Mouse hind-limb ischemia model, laser Doppler blood perfusion; type: in vivo; conditions: 0.1 microgram/mouse i.m., day 21 after surgery, vs PBS
# Description: A mouse hind limb model was created by excision of femoral artery of C57B1 mouse hind limb, the non-operated limb served as a control. ADOPep1 (SEQ ID NO:2; red symbols) and 3 (SEQ ID NO:4; green symbols) were injected intra-muscularly one day after surgery at 0.1 (squares) and 1 (circles) micrograms/mouse. Injection of PBS (black diamond) was used as a control. Blood flow was measured using a laser Doppler immediately (T0) or at 7 (T7), 14 (T14) and 21 (T21) days after surgery. The average perfusion of each limb was determined and the perfusion ratio [expressed as Relative Perfusion (ischemic left/control right leg)] was plotted against time.
# A mouse hind limb ischemia model was used. Ischemia was created in the C57B1 strain mouse by ligation and excision of the femoral artery on the left hind limb. The right hind limb served as a control. A day after the operation ADOPep1 and 3 were injected intramuscular at a site close to the operation. […] The blood perfusion was measured using a Laser Doppler Blood perfusion analyzer (Perimed, Sweden) one day post operation and 7, 14, 21 days post operation. The average perfusion of each limb was computed and percent perfusion ratio was expressed as the ischemic (left)/control (right) percent perfusion ratio.
# [2] = tested on: GRP78 in mouse ischemic hind limb; assay: GRP78-positive cells in ischemic hind limb sections; type: in vivo; conditions: 1 μg/mice, 7 to 14 days post ligation, vs PBS
# Description: FIG. 21 is a bar graph depicting the mean number of GRP78-positive (GRP78+) cells per area in hind limb ischemia treated with ADOPep1 as a function of the days post induction of ischemia. Mice were subjected to hind limb ligation (the ischemic model) and after one day the mice were injected with either 1 μg/mice of ADOPep1, or 50 μl of PBS as control. The number of GRP78 positive cells was determined in histological sections prepared from ligated hind limbs (injected with ADOPep1 or PBS) of mice sacrificed at 7, 14 or 21 days post ischemia induction or normal untreated (non-ischemic) hind limbs.
# [3] = tested on: endothelial cells; assay: CoCl2-induced apoptosis of endothelial cells (Annexin-FITC/PI FACS); type: cell-based, human; conditions: normoxia, 100 micromolar per 100,000 cells CoCl2, 10 ng/ml peptide 24 hours
# Description: FIGS. 33a-f are representative FACS analyses depicting a specific inhibition of hypoxia-induced apoptosis of endothelial cells by ADOPep1. Endothelial cells in Petri dishes were incubated for 24 hours with 5% FCS in supplement-free endothelial cell growth medium under normoxia (FIGS. 33a and d), exposed to 24 hours hypoxia (Figures c and f) or incubated under normoxia with 100 micromolar per 100,000 cells CoCl2 (FIGS. 33b and e), in the absence (FIGS. 33a-c) or presence (FIGS. 33d-f) of 10 ng/ml Adopep1 peptide (for 24 hours). Cells were trypsinized and immediately re-suspended in PBS with 5% FCS and 0.1% Na-azide. Samples containing 100,000 cells were tested for apoptosis using the Annexin-FITC (X axis) and propidium iodide (Y axis) kit (Bender Medsystems, Vienna, Austria), according to manufacturer's instructions. Results were analyzed by FACScan (Beckton Dickinson).
# FIG. 34 is a histogram depicting the FACS results of the experiments described in FIGS. 33a-f. Data represents average±SD of 2 experiments.
# [4] = tested on: endothelial cells (HUVEC); assay: Proliferation of endothelial cells under hypoxia ([H3]Thymidine incorporation); type: cell-based, human; conditions: 24 hours starvation, 10 ng/ml
# Description: FIG. 5 is a graph depicting cell proliferation as a function of ADOPeps' concentration. Proliferation of endothelial cells (EC) under hypoxia conditions was measured by [H^3]Thymidine incorporation. Endothelial cells (12,000/well) in minimal growth medium were incubated for 24 hours in the presence of 1, 10 and 100 ng/ml of ADOPep1 (SEQ ID NO:2; red diamonds), 2 (SEQ ID NO:3; blue squares) and 3 (SEQ ID NO:4; green triangles) peptides.
# HUVEC from passage 3 were used for proliferation experiments. Endothelial cells (15,000 cells/well) were seeded on 24-wells in the presence of endothelial cell growth medium (Promocell, Heidelberg, Germany) with supplements and incubated for 24 hours. After then, cells were exposed to 24 hours starvation in a medium free of supplements. ADOPeps were added at concentrations of 1, 10 and 100 ng/ml for 24 hours under hypoxic conditions. 2 μCi/well of Thymidine (SIGMA, Rehovot Israel) were added or over night incubation followed by 3 washes with PBS before harvesting at 37° C. with 300 μl/well of 0.5 M NaOH. Cell lysates were transferred to scintillation vials with 2 ml scintillation liquid Ultima Gold (Packard Bioscience, Meriden, USA) and counted in a β counter. Results were obtained as counts per minute (cpm).
# [5] = tested on: mouse ischemic hind limb; assay: Apoptotic cells in ischemic hind limb sections; type: in vivo; conditions: 1 μg/mice, 7 days post ligation, vs PBS
# Description: FIG. 22 is a bar graph depicting the number of apoptotic cells per field in ischemic hind limb treated with ADOPep1 as a function of days after ischemia induction. Mice were subjected to hind limb ligation and PBS or ADOpep1 injection as described in the description of FIG. 21, hereinabove, and the number of apoptotic cells per microscopical filed was determined in histological sections prepared from either ligated and ADopep or PBS treated hind limbs of mice sacrificed at 7, 14 or 21 days post ischemia induction or from normal non-ischemic hind limbs.
# [6] = tested on: endothelial cells; assay: Inhibition of binding of biotinylated ADOPep1 to endothelial cells by motif peptides; set-up: species or system human; conditions: normoxia, peptides 0.01, 0.1 or 1 ng/ml, ADOPep1^Biot 2 μg/ml
# Description: FIG. 23 is a graph depicting the inhibition of binding of ADOPep1^Biot (2 μg/ml) to endothelial cells by specific peptides corresponding to conserved motifs from the ADOPeps. Endothelial cells were incubated for 2 hours under normoxia conditions in the presence of increasing concentrations (0.01, 0.1 or 1 ng/ml) of peptides having the amino acid sequences corresponding to Motif A (HWRRP; SEQ ID NO:7), Motif B (HWRRA; SEQ ID NO:8), Motif C (AHLLP; SEQ ID NO:6) or non-biotinylated ADOPep1 (SEQ ID NO:2) and then were incubated for 1 hour with biotinylated ADOPep1 (2 μg/ml) and the binding of biotinylated ADOPep1 to endothelial cells was determined using HRP-streptavidin.
Substance,blood perfusion ratio (ischemic left/control right) [1],mean number of GRP78 positive cells [2],mean number of GRP78 positive cells ([2]; listed as Adopep1),effect on CoCl2 induced apoptosis [3],effect on CoCl2 induced apoptosis ([3]; listed as AdoPep1),proliferation of endothelial cells [4],proliferation of endothelial cells ([4]; listed as ADOpep1),number of apoptotic cells per field [5],number of apoptotic cells per field ([5]; listed as ADoPep1),inhibition of the binding of ADOPep1^Biot to endothelial cells [6]
"HWRRAHLLPRLP [ADOPep1, ADAM15 derived peptide, amino acids 286-297 of the metalloprotease domain]",significant increase in the blood perfusion ratio; also recorded: significant increase in blood perfusion (p<0.05),significantly increased,more significant increase in mean number of GRP78 positive cells,no effect on apoptosis induced by CoCl2; also recorded: not the CoCl2 induced apoptosis,did not inhibit apoptosis of endothelial cells exposed to the apoptotic inducer Cobalt-Chloride,capable of inducing proliferation of EC,induced proliferation of endothelial cells,significant decrease,dramatically decreased,
"HWRRP [Motif A, 5 amino acid motif peptide]",,,,,,,,,,significant inhibition
